Reference: patent publication US5488134A, “Preparation of compounds of lignan series” (Shionogi & Co., Ltd., priority 1993, dated 1996)

How the values were obtained:
LDL = assay: Inhibitory Action against Oxidative Modification of LDL (Cu2+-induced, TBA reactive substances); assay type: biochemical, New Zealand White rabbits; conditions: rabbit LDL 0.2 mg protein/ml, cupric sulfate 0.5 μM Cu2+, 37° C., 24 hours, read-out: LDL-Oxidation Inhibiting IC50
Procedure: Inhibitory Action against Oxidative Modification of LDL
Experiments were conducted as follows according to the method of Kita, et al. described in proceedings of the National Academy of Sciences, USA, volume 84, pages 5928 (1987).
First, LDL was separated from the blood of New Zealand White rabbits fed with a feed containing 0.5% of cholesterol for three weeks and dissolved in phosphate-buffered physiological saline (final LDL concentration: 0.2 mg protein/ml). To this was added an ethanolic solution of each test compound, then cupric sulfate was added thereto (final Cu^2+ concentration: 0.5 μM) and the mixture was incubated at 37° C. for 24 hours.
The amount of lipid peroxides in each of the incubated solutions was measured as thiobarbituric acid reacting substances (TBA reactive substances) and, from the regression line of the inhibitory rate for oxidative modification of LDL and the concentration of the compound, the 50% inhibiting concentration (IC50) was calculated. Quantitative determination of the TBA reactive substances was conducted by measuring the TBA reactive substances in the supernatant (prepared by removing protein from the incubated solution) by means of TBA method.

[1] = Cholesterol-lowering Action in cholesterol-fed mice; assay type: in vivo; conditions: male ICR mice, feed with 1% cholesterol and 0.5% sodium cholate, 0.12% test compound in feed, seven days; for (VLDL + LDL) Cholesterol Lowering Rate: total minus HDL cholesterol; for Total Cholesterol Lowering Rate: serum
Procedure: Cholesterol-lowering Action
Male ICR mice (body weight: 30-40 grams) were freely fed for seven days with a feed containing 1% of cholesterol and 0.5% of sodium cholate to which 0.12% of the test compound was added (no such a compound was added for the control group), then blood was collected from the mice and the total cholesterol in serum was measured by the method of Allain described in Clinical Chemistry, volume 20, page 470 (1974).
Total amount of VLDL cholesterol and LDL cholesterol was calculated by subtracting the amount of HDL cholesterol from the amount of total cholesterol. The amount of the HDL cholesterol was measured by the method of Ash and Hentschel described in Clinical Chemistry, volume 24, page 2180 (1978).
Cholesterol lowering action of the test compound was evaluated from the cholesterol lowering rate calculated from the following expressions. [formula]

Which IC50 (LDL) does the source give for `COC(=O)c1c(C(=O)c2ccc(Cl)cc2)c(O)c2cc(OC)c(OC)c(OC)c2c1-c1ccc(OC)c(OC)c1` [Example 2, 3-(4-Chlorobenzoyl)-1-(3,4-dimethoxyphenyl)-4-hydroxy-2-(methoxycarbonyl)-6,7,8-trimethoxynaphthalene] here?
The IC50 was 1420 nM.

What about the “(VLDL + LDL) Cholesterol Lowering Rate” value [1] of the same molecule?
Its value is 74%.

And the “Total Cholesterol Lowering Rate” value [1]?
Its value is 28%.

With `COC(=O)c1c(C(=O)c2ccc(C(F)(F)F)cc2)c(O)c2cc(OC)c(OC)c(OC)c2c1-c1ccc(OC)c(OC)c1` [Example 1, 1-(3,4-Dimethoxyphenyl)-4-hydroxy-2-(methoxycarbonyl)-3-[4-(trifluoromethyl)benzoyl]-6,7,8-trimethoxynaphthalene] as the molecule, how does the IC50 (LDL) read?
The IC50 was 1520 nM.

What about the “(VLDL + LDL) Cholesterol Lowering Rate” value [1] of the same molecule?
The value was 61%.

What about the “Total Cholesterol Lowering Rate” value [1] of the same molecule?
Its value is 22%.
